The results in this text go back to ChEMBL document CHEMBL5465560, “Selectivity Literature for EUbOPEN Chemogenomic Library” (2024).

Assay [1] concerns the target T1, Serine/threonine-protein kinase D1 (Homo sapiens) (UniProt Q15139).
T1 sequence (whole entry): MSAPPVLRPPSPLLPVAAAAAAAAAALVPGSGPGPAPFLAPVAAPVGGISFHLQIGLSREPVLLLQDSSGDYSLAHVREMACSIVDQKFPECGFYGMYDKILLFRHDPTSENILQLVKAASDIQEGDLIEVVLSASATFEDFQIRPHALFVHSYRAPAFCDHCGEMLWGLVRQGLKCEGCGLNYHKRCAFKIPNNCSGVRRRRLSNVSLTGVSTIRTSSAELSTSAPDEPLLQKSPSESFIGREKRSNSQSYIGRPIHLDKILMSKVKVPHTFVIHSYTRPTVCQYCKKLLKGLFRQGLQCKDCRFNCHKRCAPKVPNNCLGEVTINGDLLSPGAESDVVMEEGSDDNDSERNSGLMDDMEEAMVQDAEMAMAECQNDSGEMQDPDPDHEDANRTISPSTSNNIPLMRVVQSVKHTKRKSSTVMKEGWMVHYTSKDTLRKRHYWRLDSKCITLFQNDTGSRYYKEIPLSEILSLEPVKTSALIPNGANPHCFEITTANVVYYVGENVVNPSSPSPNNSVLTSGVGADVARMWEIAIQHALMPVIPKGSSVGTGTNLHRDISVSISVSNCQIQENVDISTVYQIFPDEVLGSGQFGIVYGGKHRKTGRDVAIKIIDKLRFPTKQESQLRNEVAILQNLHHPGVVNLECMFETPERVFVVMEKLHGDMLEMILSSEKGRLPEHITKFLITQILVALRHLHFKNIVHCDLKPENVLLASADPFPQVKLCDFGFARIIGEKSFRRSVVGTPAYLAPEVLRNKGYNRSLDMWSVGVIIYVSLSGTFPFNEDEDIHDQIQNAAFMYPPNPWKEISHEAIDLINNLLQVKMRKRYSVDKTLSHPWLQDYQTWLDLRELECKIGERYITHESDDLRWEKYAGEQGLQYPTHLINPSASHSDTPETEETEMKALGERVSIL
The assay is described as follows: Selectivity interaction (Upstate Kinase Profiler service (Millipore)) EUB0000056c PRKD1. As to conditions: at 1 µM.

Assay [2] addresses Serine/threonine-protein kinase Nek4 (Homo sapiens) (UniProt P51957). Particulars: at 10 µM.
For assay [3], the target named is Myosin light chain kinase, smooth muscle (Homo sapiens, UniProt Q15746). The assay is described as follows: Selectivity interaction (Ambit KINOMEscan and KiNATiv profiling in Jurkat cells) EUB0000090b MYLK. The class given is cell-based. As to conditions: at 1 µM.
Assay [4] deals with Protein arginine N-methyltransferase 8 (Homo sapiens, UniProt Q9NR22). Particulars: at 1 µM.
For assay [5], the target named is T2, Serine/threonine-protein kinase TBK1 (Homo sapiens) (UniProt Q9UHD2).
T2 sequence (whole entry): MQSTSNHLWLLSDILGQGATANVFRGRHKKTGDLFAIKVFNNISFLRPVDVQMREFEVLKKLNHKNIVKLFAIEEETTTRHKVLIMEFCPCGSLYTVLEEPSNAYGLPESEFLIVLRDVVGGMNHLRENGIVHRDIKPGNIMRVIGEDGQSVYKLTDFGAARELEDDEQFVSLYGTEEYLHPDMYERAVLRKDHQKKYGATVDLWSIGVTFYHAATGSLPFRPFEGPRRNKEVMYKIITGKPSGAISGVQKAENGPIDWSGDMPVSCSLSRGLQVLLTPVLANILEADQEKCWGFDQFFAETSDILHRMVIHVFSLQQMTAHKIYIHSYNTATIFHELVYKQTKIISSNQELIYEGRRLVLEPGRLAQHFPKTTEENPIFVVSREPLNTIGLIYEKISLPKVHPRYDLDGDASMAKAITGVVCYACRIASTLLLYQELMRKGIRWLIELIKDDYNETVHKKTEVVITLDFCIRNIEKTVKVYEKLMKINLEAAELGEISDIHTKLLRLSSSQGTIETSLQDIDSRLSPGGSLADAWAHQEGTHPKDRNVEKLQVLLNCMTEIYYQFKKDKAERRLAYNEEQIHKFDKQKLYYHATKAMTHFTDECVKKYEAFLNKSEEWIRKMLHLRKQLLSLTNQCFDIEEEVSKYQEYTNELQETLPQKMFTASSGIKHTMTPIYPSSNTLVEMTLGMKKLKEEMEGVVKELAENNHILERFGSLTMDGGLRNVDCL
The assay is described as follows: Selectivity interaction (ActivX KiNativ screen (kinase selectivity in THP-1 cell lysates)) EUB0000639a TBK1. Type of assay: subcellular. Particulars: lysate, at 1 µM.

The target of a further assay is Focal adhesion kinase 1 (Homo sapiens, UniProt Q05397).
Assay [6] deals with ATPase family AAA domain-containing protein 2 (Homo sapiens) (UniProt Q6PL18). The assay is described as follows: Selectivity interaction (Human bromodomain panel (DSF assay)) EUB0000233b ATAD2.
Assay [7] has as its target T3, Serine/threonine-protein kinase Nek3 (Homo sapiens) (UniProt P51956).
T3 sequence (whole entry): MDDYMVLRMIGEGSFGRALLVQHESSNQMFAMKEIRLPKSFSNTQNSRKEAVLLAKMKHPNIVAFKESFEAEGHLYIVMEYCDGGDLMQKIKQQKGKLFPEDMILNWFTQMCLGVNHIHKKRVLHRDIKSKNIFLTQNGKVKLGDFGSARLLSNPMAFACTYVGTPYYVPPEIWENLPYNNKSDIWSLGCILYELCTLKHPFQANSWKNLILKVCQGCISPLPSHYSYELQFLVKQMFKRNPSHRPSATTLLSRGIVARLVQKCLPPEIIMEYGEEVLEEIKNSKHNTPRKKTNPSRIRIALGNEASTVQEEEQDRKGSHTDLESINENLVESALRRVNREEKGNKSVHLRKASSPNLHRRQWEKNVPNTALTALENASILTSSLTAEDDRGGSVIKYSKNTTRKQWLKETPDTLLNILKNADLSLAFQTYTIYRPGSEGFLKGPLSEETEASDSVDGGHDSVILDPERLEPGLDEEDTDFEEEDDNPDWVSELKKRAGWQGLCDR
The experiment in a line: Selectivity interaction (KinomeScan (DiscoverX)) EUB0001619a NEK3. As to conditions: at 1 µM.

Assay [8] has as its target Serine/threonine-protein kinase 10 (Homo sapiens) (UniProt O94804). The assay is described as follows: Selectivity interaction (Kinase panel (KiNativ target engagement assay in Jurkat cells)) EUB0001635a STK10. As to conditions: Selectivity number of off-targets 0.0, Selectivity number of targets 233.0, Source Knowledge https://www.sciencedirect.com/science/article/pii/S2451945619300674?via%3Dihub, at 1 µM. Type of assay: cell-based.

A value given as a limit tells only on which side of the number the result lay.

Sequence of Focal adhesion kinase 1 (Q05397 whole entry, the tested form may be a part): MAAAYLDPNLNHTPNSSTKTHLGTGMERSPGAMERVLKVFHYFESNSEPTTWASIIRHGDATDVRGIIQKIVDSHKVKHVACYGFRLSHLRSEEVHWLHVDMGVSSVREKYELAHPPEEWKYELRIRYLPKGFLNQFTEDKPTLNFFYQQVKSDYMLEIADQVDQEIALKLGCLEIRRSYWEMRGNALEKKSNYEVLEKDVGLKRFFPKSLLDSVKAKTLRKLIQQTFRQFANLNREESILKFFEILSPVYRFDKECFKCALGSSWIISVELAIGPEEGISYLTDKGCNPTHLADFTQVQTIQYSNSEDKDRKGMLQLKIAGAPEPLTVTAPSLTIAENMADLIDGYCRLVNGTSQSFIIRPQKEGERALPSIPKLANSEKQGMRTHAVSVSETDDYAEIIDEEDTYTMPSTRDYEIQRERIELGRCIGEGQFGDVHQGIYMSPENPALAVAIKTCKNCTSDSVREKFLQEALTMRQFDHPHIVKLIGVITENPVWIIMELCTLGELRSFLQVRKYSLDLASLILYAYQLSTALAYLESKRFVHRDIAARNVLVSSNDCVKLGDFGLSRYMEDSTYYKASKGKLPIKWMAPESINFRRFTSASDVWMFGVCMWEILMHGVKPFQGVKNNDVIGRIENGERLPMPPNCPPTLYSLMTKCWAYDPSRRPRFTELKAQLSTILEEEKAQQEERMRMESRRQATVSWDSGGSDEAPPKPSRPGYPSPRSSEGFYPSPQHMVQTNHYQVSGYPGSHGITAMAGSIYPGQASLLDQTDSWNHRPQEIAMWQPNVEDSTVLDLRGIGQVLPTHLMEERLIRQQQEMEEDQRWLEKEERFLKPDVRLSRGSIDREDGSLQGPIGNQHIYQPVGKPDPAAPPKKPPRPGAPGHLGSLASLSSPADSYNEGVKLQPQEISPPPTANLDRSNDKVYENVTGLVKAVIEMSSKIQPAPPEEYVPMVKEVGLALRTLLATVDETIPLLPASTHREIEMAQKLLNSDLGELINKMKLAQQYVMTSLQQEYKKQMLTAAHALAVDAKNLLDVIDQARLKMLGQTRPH
Sequence of ATPase family AAA domain-containing protein 2 (Homo sapiens) (Q6PL18 whole entry, the tested form may be a part): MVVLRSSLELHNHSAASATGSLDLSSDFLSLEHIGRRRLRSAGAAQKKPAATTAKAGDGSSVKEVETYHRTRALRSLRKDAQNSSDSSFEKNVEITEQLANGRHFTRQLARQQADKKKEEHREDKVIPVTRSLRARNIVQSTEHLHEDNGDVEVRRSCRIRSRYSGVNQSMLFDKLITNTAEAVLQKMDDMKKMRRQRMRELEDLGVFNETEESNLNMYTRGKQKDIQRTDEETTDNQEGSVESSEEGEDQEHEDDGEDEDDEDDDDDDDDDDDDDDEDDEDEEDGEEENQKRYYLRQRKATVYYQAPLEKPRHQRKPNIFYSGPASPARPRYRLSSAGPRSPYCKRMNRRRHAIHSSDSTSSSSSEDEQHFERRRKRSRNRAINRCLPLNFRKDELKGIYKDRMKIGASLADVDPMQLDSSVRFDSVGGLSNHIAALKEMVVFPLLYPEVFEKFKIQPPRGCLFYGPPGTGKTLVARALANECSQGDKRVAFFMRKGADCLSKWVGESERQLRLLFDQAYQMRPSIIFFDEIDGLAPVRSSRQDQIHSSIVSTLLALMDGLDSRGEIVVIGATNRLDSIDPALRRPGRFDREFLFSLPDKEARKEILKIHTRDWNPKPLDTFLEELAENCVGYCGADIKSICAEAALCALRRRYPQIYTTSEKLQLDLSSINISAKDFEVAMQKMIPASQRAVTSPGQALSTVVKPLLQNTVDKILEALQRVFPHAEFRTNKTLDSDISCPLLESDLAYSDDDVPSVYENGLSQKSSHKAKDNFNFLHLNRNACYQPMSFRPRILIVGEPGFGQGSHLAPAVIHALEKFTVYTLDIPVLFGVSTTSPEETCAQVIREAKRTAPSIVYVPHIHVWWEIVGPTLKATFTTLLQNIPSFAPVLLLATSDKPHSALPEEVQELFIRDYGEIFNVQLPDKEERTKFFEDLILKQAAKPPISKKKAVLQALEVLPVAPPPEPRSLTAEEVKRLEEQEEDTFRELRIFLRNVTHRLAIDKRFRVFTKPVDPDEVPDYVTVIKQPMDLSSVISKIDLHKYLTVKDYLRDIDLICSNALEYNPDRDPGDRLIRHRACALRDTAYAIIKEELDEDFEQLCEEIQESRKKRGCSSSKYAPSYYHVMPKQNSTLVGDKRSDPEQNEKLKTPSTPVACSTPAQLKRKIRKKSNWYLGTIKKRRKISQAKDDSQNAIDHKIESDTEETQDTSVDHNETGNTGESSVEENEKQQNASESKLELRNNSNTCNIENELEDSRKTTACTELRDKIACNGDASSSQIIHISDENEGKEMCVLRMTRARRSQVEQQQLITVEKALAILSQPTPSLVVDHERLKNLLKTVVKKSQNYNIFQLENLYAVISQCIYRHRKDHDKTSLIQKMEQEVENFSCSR
Sequence of Myosin light chain kinase, smooth muscle (Q15746 whole entry): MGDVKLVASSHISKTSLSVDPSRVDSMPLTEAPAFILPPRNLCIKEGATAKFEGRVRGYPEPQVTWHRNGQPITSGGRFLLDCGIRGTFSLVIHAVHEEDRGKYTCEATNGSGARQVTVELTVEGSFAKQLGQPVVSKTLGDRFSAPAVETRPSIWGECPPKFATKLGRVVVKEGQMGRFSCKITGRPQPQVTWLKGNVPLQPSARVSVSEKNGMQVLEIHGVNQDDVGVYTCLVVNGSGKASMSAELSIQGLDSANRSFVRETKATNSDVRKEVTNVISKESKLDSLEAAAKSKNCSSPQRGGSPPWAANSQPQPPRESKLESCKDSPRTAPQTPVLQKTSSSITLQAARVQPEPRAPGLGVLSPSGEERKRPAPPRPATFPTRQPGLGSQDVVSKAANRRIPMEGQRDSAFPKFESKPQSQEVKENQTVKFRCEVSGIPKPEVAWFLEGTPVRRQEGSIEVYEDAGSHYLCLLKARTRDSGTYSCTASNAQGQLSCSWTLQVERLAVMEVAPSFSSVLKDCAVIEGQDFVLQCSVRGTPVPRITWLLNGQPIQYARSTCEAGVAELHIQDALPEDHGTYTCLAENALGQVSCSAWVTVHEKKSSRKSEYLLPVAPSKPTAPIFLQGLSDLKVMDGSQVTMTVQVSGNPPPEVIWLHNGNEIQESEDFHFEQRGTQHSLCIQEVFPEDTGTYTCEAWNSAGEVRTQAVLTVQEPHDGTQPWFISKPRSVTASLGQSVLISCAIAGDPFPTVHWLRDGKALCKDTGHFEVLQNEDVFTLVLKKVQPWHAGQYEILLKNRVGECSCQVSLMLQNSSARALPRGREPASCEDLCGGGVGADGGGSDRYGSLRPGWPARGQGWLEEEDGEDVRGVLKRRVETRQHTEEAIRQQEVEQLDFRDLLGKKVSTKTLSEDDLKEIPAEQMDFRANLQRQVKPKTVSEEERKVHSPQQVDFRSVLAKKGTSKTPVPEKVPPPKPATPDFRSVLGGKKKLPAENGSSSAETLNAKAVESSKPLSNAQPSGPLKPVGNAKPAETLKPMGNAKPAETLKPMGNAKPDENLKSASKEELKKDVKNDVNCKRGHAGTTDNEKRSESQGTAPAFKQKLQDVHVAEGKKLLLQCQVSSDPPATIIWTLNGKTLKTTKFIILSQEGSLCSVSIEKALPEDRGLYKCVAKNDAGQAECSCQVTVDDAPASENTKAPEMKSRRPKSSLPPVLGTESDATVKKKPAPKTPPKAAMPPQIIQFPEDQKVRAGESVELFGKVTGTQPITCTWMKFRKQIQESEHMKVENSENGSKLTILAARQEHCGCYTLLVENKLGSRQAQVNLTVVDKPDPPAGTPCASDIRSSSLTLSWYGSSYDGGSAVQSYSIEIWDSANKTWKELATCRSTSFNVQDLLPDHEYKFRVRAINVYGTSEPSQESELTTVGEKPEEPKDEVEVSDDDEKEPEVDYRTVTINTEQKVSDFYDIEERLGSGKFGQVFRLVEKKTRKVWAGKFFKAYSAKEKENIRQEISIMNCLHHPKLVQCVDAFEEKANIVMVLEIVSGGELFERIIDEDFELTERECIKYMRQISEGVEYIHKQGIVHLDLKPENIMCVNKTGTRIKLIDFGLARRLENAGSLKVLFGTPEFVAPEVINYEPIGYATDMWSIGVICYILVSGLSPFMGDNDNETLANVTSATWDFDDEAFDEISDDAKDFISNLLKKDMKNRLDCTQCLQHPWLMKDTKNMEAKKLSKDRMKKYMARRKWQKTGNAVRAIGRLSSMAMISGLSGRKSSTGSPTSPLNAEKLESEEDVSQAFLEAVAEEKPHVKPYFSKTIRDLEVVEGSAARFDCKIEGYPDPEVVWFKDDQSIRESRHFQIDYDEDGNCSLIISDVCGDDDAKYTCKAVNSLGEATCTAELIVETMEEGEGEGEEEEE
Sequence of Protein arginine N-methyltransferase 8 (Q9NR22 2-394 limits assumed): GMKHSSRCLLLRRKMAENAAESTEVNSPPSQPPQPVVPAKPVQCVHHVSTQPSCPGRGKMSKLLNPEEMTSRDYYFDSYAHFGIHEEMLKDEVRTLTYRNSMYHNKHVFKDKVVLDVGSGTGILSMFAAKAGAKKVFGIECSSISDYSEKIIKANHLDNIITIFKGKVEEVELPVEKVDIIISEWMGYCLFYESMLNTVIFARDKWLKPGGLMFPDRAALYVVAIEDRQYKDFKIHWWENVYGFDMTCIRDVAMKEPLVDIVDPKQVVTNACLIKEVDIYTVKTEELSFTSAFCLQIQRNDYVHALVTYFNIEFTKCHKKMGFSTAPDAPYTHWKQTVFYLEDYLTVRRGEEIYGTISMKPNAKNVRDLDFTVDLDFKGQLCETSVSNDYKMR

With `Cc1ccc(-c2ccc3c(ccc4sc5c(c43)NC[C@@H](C)NC5=O)n2)cn1`, in assay [1], the % of inhibition was 19%. `Cc1cc([C@@H](C)Nc2ccccc2C(=O)O)c2nc(N3CCOCC3)cc(=O)n2c1` [AZD-6482] yielded a % of control in assay [2] of 61%. `CN(C)C/C=C/C(=O)Nc1ccc(C(=O)N2CCCC(Nc3ncc(Cl)c(-c4c[nH]c5ccccc45)n3)C2)cc1` (centres undefined) showed a % of control in assay [3] of 100%. Compound `CNCCN1CCC(c2cc(CN(C)C(=O)c3cccc(Oc4ccccc4)c3)ccn2)CC1` came in with a % activity in [4] of more than 90%. `CC[C@@H]1[C@H](F)C(=O)N[C@@H]1COc1nccc2cc(C(N)=O)c(OC)cc12` [ZIMLOVISERTIB] registered a % of inhibition in assay [5] of 7.6%.

As for `CCc1cccc(CC)c1NC(=O)c1nn(C)c2c1CCc1cnc(Nc3ccc(C(=O)NC4CCN(C)CC4)cc3OC(F)(F)F)nc1-2`, the IC50 on Focal adhesion kinase 1 was more than 10 µM. In assay [6], `CN(C)CCCOc1ccc(-c2cc(NCCCn3cccn3)nc(S(C)(=O)=O)n2)cc1` registered a dTM of less than 2 K. `N#Cc1cccc(-c2c[nH]c3ncnc(N4CCOCC4)c23)c1` had a % of control in [7] of 100%. On to `C=CC(=O)Nc1ccc(C(=O)Nc2[nH]nc3c2CN(C(=O)N[C@H](CN(C)C)c2ccccc2)C3(C)C)cc1`, for which the % of engagement in assay [8] was -2.2%.
